{"source": "patent US5998488A", "about": "“Ophthalmic composition” (Lion Corporation, priority 1994, dated 1999)", "key": {"[1]": {"system": "E. coli, P. aeru, S. aureus, A. nigar, Candida", "test": "Antimicrobial test (preservative effectiveness test, USP), microorganism type not specified", "format": "cell-based", "conditions": "α-cyclodextrin 0.03% or more", "procedure": "(§1) Using bacteria Escherichia coli (E. coli), Pseudomonas aeruginosa (P. aeru), and Stapyrococcus aureus (S. aureus) and fungi Aspergillus nigar (A. nigar) and Candida albicans (Candida) as infectious microorganisms, a preservative effectiveness test was carried out according to the Pharmacopoeia of the United States.\n(§2) ++: microorganisms died within 5 days\n(§3) +: microorganisms died in 6-10 days\n(§4) -:microorganisms died in 11-15 days or over 15 days\nSolutions were prepared in accordance with the formulation shown in Experiment 1 in a conventional manner as used in the preparation of eye drops while the amount of disodium ethylenediaminetetraacetate (EDTA-2Na) blended was in the range of 0.002 to 0.3%. The solutions were subject to the antimicrobial test of Experiment 3 and evaluated for antimicrobial activity according to the same criterion as above.\nSolutions of the following formulation were prepared in a conventional manner as used in the preparation of eye drops.\nThe solutions were subject to the antimicrobial test of Experiment 3 and evaluated for antimicrobial activity according to the same criterion as above.\nSolutions of the formulation shown in Table 7 were prepared to a total amount of 1,000 g in a conventional manner as used in the preparation of eye drops. […] The ophthalmic solutions were subject to the same tests as in Experiments 1 and 3. In the test of Experiment 3, the ophthalmic solutions were evaluated for antimicrobial activity according to the same criterion as before."}, "[2]": {"system": "Candida albicans (Candida)", "test": "Antimicrobial test (preservative effectiveness test, USP), Candida", "format": "cell-based", "conditions": "benzalkonium chloride 0.01%", "procedure": "(§5) The solutions of Experiment 1 were subject to an antimicrobial test.\nas §1, §2, §3, §4"}, "[3]": {"test": "Benzalkonium chloride adsorption test (soft contact lens Nichicon Soft μ)", "format": "physicochemical", "conditions": "benzalkonium chloride 0.01%, 25° C., 24 hours", "procedure": "(§6) A test was conducted to examine the inhibition of benzalkonium chloride adsorption to soft contact lenses. Solutions of the following formulation were prepared in a conventional manner as used in the preparation of eye drops.\n(§7) The percent inhibition of benzalkonium chloride adsorption to commercially available soft contact lenses was determined by the following test.\n(§8) Benzalkonium chloride adsorption test A 30-ml vial was charged with 10 ml of the solution and a soft contact lens was immersed therein. In a constant temperature tank at 25° C., the vial was shaken for 24 hours. After the contact lens was removed from the vial, the concentration of benzalkonium chloride in the solution was quantitatively determined by high performance liquid chromatography. A percent inhibition of adsorption was calculated according to the following formula.\n(§9) As a control, the above procedure was repeated except that no contact lens was immersed.\n(§10) Inhibition of adsorption (%)=(concentration of benzalkonium chloride in sample solution)/(concentration of benzalkonium chloride in control solution)×100\n(§11) Note that Seequence, Nichicon Soft and Menicon Soft are trademarks of soft contact lenses commercially available from Bausch & Lomb, Nihon Contact K.K., and Menicon K.K., respectively."}, "[4]": {"system": "Pseudomonas aeruginosa (P. aeru)", "test": "Antimicrobial test (preservative effectiveness test, USP), P. aeru", "format": "cell-based", "conditions": "benzalkonium chloride 0.01%", "procedure": "as §5, §1, §2, §3, §4"}, "[5]": {"test": "Benzalkonium chloride adsorption test (soft contact lens Menicon Soft 72)", "format": "physicochemical", "conditions": "benzalkonium chloride 0.01%, 25° C., 24 hours", "procedure": "as §6, §7, §8, §9, §10, §11"}, "[6]": {"format": "physicochemical", "conditions": "6 months at 50° C.", "procedure": "[…] More specifically, solutions were prepared in accordance with the formulation shown in Experiment 1 while the amount of α-cyclodextrin mixed was in the range of 0.03 to 2%."}, "[7]": {"test": "Benzalkonium chloride adsorption test (soft contact lenses, lens not given)", "format": "physicochemical", "conditions": "concentration of at least 0.03%", "procedure": "as §7, §8, §9, §10\nSolutions of the formulation shown in Table 7 were prepared to a total amount of 1,000 g in a conventional manner as used in the preparation of eye drops. Ophthalmic solutions of Examples 2 to 13 were obtained. The ophthalmic solutions were subject to the same tests as in Experiments 1 and 3. In the test of Experiment 3, the ophthalmic solutions were evaluated for antimicrobial activity according to the same criterion as before."}, "[8]": {"test": "Benzalkonium chloride adsorption test (soft contact lens Seequence)", "format": "physicochemical", "conditions": "benzalkonium chloride 0.01%, 25° C., 24 hours", "procedure": "as §6, §7, §8, §9, §10, §11"}, "[9]": {"system": "Stapyrococcus aureus (S. aureus)", "test": "Antimicrobial test (preservative effectiveness test, USP), S. aureus", "format": "cell-based", "conditions": "benzalkonium chloride 0.01%", "procedure": "as §5, §1, §2, §3, §4"}, "[10]": {"system": "Escherichia coli (E. coli)", "test": "Antimicrobial test (preservative effectiveness test, USP), E. coli", "format": "cell-based", "conditions": "benzalkonium chloride 0.01%", "procedure": "as §5, §1, §2, §3, §4"}, "[11]": {"system": "Aspergillus nigar (A. nigar)", "test": "Antimicrobial test (preservative effectiveness test, USP), A. nigar", "format": "cell-based", "conditions": "benzalkonium chloride 0.01%", "procedure": "as §5, §1, §2, §3, §4"}}, "note": "Like-named read-outs stand apart in the source and are kept apart here."}
{"molecule": "OC[C@H]1O[C@@H]2O[C@H]3[C@H](O)[C@@H](O)[C@@H](O[C@H]4[C@H](O)[C@@H](O)[C@@H](O[C@H]5[C@H](O)[C@@H](O)[C@@H](O[C@H]6[C@H](O)[C@@H](O)[C@@H](O[C@H]7[C@H](O)[C@@H](O)[C@@H](O[C@H]1[C@H](O)[C@H]2O)O[C@@H]7CO)O[C@@H]6CO)O[C@@H]5CO)O[C@@H]4CO)O[C@@H]3CO", "note": "[α-cyclodextrin]", "values": [{"measurement": "Antimicrobial activity of solution containing benzalkonium chloride (in words)", "setting": "[1]", "result": "significantly reduced in antimicrobial activity"}, {"measurement": "Antimicrobial activity", "setting": "[2]; α-cyclodextrin 0.01%", "result": "+ (microorganisms died in 6-10 days)"}, {"measurement": "Antimicrobial activity", "setting": "[2]; α-cyclodextrin 0.02%", "result": "+ (microorganisms died in 6-10 days)"}, {"measurement": "Antimicrobial activity", "setting": "[2]; α-cyclodextrin 0.03%", "result": "- (microorganisms died in 11-15 days or over 15 days)"}, {"measurement": "Antimicrobial activity", "setting": "[2]; α-cyclodextrin 0.05%", "result": "- (microorganisms died in 11-15 days or over 15 days)"}, {"measurement": "Antimicrobial activity", "setting": "[2]; α-cyclodextrin 0.1%", "result": "- (microorganisms died in 11-15 days or over 15 days)"}, {"measurement": "Antimicrobial activity", "setting": "[2]; α-cyclodextrin 0.2%", "result": "- (microorganisms died in 11-15 days or over 15 days)"}, {"measurement": "Antimicrobial activity", "setting": "[2]; α-cyclodextrin 0.3%", "result": "- (microorganisms died in 11-15 days or over 15 days)"}, {"measurement": "Inhibition of adsorption", "setting": "[3]; α-cyclodextrin 0.01%", "result": 87, "unit": "%"}, {"measurement": "Inhibition of adsorption", "setting": "[3]; α-cyclodextrin 0.02%", "result": 93, "unit": "%"}, {"measurement": "Inhibition of adsorption", "setting": "[3]; α-cyclodextrin 0.03%", "result": 100, "unit": "%"}, {"measurement": "Inhibition of adsorption", "setting": "[3]; α-cyclodextrin 0.05%", "result": 100, "unit": "%"}, {"measurement": "Inhibition of adsorption", "setting": "[3]; α-cyclodextrin 0.1%", "result": 100, "unit": "%"}, {"measurement": "Inhibition of adsorption", "setting": "[3]; α-cyclodextrin 0.2%", "result": 100, "unit": "%"}, {"measurement": "Inhibition of adsorption", "setting": "[3]; α-cyclodextrin 0.3%", "result": 100, "unit": "%"}, {"measurement": "Antimicrobial activity", "setting": "[4]; α-cyclodextrin 0.01%", "result": "+ (microorganisms died in 6-10 days)"}, {"measurement": "Antimicrobial activity", "setting": "[4]; α-cyclodextrin 0.02%", "result": "+ (microorganisms died in 6-10 days)"}, {"measurement": "Antimicrobial activity", "setting": "[4]; α-cyclodextrin 0.03%", "result": "- (microorganisms died in 11-15 days or over 15 days)"}, {"measurement": "Antimicrobial activity", "setting": "[4]; α-cyclodextrin 0.05%", "result": "- (microorganisms died in 11-15 days or over 15 days)"}, {"measurement": "Antimicrobial activity", "setting": "[4]; α-cyclodextrin 0.1%", "result": "- (microorganisms died in 11-15 days or over 15 days)"}, {"measurement": "Antimicrobial activity", "setting": "[4]; α-cyclodextrin 0.2%", "result": "- (microorganisms died in 11-15 days or over 15 days)"}, {"measurement": "Antimicrobial activity", "setting": "[4]; α-cyclodextrin 0.3%", "result": "- (microorganisms died in 11-15 days or over 15 days)"}, {"measurement": "Inhibition of adsorption", "setting": "[5]; α-cyclodextrin 0.01%", "result": 88, "unit": "%"}, {"measurement": "Inhibition of adsorption", "setting": "[5]; α-cyclodextrin 0.02%", "result": 92, "unit": "%"}, {"measurement": "Inhibition of adsorption", "setting": "[5]; α-cyclodextrin 0.03%", "result": 100, "unit": "%"}, {"measurement": "Inhibition of adsorption", "setting": "[5]; α-cyclodextrin 0.05%", "result": 100, "unit": "%"}, {"measurement": "Inhibition of adsorption", "setting": "[5]; α-cyclodextrin 0.1%", "result": 100, "unit": "%"}, {"measurement": "Inhibition of adsorption", "setting": "[5]; α-cyclodextrin 0.2%", "result": 100, "unit": "%"}, {"measurement": "Inhibition of adsorption", "setting": "[5]; α-cyclodextrin 0.3%", "result": 100, "unit": "%"}, {"measurement": "Stability", "setting": "[6]; α-cyclodextrin 0.03%", "result": ".largecircle."}, {"measurement": "Stability", "setting": "[6]; α-cyclodextrin 0.5%", "result": ".largecircle."}, {"measurement": "Stability", "setting": "[6]; α-cyclodextrin 1%", "result": "Δ"}, {"measurement": "Inhibition of adsorption of benzalkonium chloride to soft contact lenses (in words)", "setting": "[7]", "result": "The inhibition effect is remarkable"}, {"measurement": "Inhibition of adsorption", "setting": "[8]; α-cyclodextrin 0.01%", "result": 88, "unit": "%"}, {"measurement": "Inhibition of adsorption", "setting": "[8]; α-cyclodextrin 0.02%", "result": 92, "unit": "%"}, {"measurement": "Inhibition of adsorption", "setting": "[8]; α-cyclodextrin 0.03%", "result": 100, "unit": "%"}, {"measurement": "Inhibition of adsorption", "setting": "[8]; α-cyclodextrin 0.05%", "result": 100, "unit": "%"}, {"measurement": "Inhibition of adsorption", "setting": "[8]; α-cyclodextrin 0.1%", "result": 100, "unit": "%"}, {"measurement": "Inhibition of adsorption", "setting": "[8]; α-cyclodextrin 0.2%", "result": 100, "unit": "%"}, {"measurement": "Inhibition of adsorption", "setting": "[8]; α-cyclodextrin 0.3%", "result": 100, "unit": "%"}, {"measurement": "Antimicrobial activity", "setting": "[9]; α-cyclodextrin 0.01%", "result": "+ (microorganisms died in 6-10 days)"}, {"measurement": "Antimicrobial activity", "setting": "[9]; α-cyclodextrin 0.02%", "result": "+ (microorganisms died in 6-10 days)"}, {"measurement": "Antimicrobial activity", "setting": "[9]; α-cyclodextrin 0.03%", "result": "- (microorganisms died in 11-15 days or over 15 days)"}, {"measurement": "Antimicrobial activity", "setting": "[9]; α-cyclodextrin 0.05%", "result": "- (microorganisms died in 11-15 days or over 15 days)"}, {"measurement": "Antimicrobial activity", "setting": "[9]; α-cyclodextrin 0.1%", "result": "- (microorganisms died in 11-15 days or over 15 days)"}, {"measurement": "Antimicrobial activity", "setting": "[9]; α-cyclodextrin 0.2%", "result": "- (microorganisms died in 11-15 days or over 15 days)"}, {"measurement": "Antimicrobial activity", "setting": "[9]; α-cyclodextrin 0.3%", "result": "- (microorganisms died in 11-15 days or over 15 days)"}, {"measurement": "Antimicrobial activity", "setting": "[10]; α-cyclodextrin 0.01%", "result": "+ (microorganisms died in 6-10 days)"}, {"measurement": "Antimicrobial activity", "setting": "[10]; α-cyclodextrin 0.02%", "result": "+ (microorganisms died in 6-10 days)"}, {"measurement": "Antimicrobial activity", "setting": "[10]; α-cyclodextrin 0.03%", "result": "- (microorganisms died in 11-15 days or over 15 days)"}, {"measurement": "Antimicrobial activity", "setting": "[10]; α-cyclodextrin 0.05%", "result": "- (microorganisms died in 11-15 days or over 15 days)"}, {"measurement": "Antimicrobial activity", "setting": "[10]; α-cyclodextrin 0.1%", "result": "- (microorganisms died in 11-15 days or over 15 days)"}, {"measurement": "Antimicrobial activity", "setting": "[10]; α-cyclodextrin 0.2%", "result": "- (microorganisms died in 11-15 days or over 15 days)"}, {"measurement": "Antimicrobial activity", "setting": "[10]; α-cyclodextrin 0.3%", "result": "- (microorganisms died in 11-15 days or over 15 days)"}, {"measurement": "Antimicrobial activity", "setting": "[11]; α-cyclodextrin 0.01%", "result": "+ (microorganisms died in 6-10 days)"}, {"measurement": "Antimicrobial activity", "setting": "[11]; α-cyclodextrin 0.02%", "result": "+ (microorganisms died in 6-10 days)"}, {"measurement": "Antimicrobial activity", "setting": "[11]; α-cyclodextrin 0.03%", "result": "- (microorganisms died in 11-15 days or over 15 days)"}, {"measurement": "Antimicrobial activity", "setting": "[11]; α-cyclodextrin 0.05%", "result": "- (microorganisms died in 11-15 days or over 15 days)"}, {"measurement": "Antimicrobial activity", "setting": "[11]; α-cyclodextrin 0.1%", "result": "- (microorganisms died in 11-15 days or over 15 days)"}, {"measurement": "Antimicrobial activity", "setting": "[11]; α-cyclodextrin 0.2%", "result": "- (microorganisms died in 11-15 days or over 15 days)"}, {"measurement": "Antimicrobial activity", "setting": "[11]; α-cyclodextrin 0.3%", "result": "- (microorganisms died in 11-15 days or over 15 days)"}]}
